Experimental data from article PMC3634465, “New Anti-Inflammatory Aromatic Components from Antrodia camphorata” (International Journal of Molecular Sciences, 2013).
≈ marks a conversion by molar mass, not a printed value.

Legend:
[1] = Cell viability (MTT) in the presence of LPS; format: cell-based, murine; settings: mouse, RAW264.7 macrophage cells, 100 ng/mL LPS, mean ± SD, read-out: Cell viability (% of control)
Experimental: (§1) A murine macrophage cell line, RAW264.7 (BCRC No. 60001), was purchased from the Bioresources Collection and Research Center (BCRC, Hsinchu, Taiwan) of the Food Industry Research and Development Institute (Hsinchu, Taiwan). Cells were cultured in plastic dishes containing Dulbecco’s Modified Eagle Medium (DMEM, Sigma, St. Louis, MO, USA) supplemented with 10% fetal bovine serum (FBS, Sigma) in a CO2 incubator (5% CO2 in air) at 37 °C and subcultured every 3 days at a dilution of 1:5 using 0.05% trypsin-0.02% EDTA in Ca^2+-, Mg^2+-free phosphate-buffered saline (DPBS).
Cells (2 × 10^5) were cultured in 96-well plate containing DMEM supplemented with 10% FBS for 1 day to become nearly confluent. Then, cells were cultured with compounds 1–5 in the presence of 100 ng/mL LPS (lipopolysaccharide) (Eschericha coli 026:B6; Sigma-Aldrich, St. Louis, Mo) for 24 h. After that, the cells were washed twice with DPBS and incubated with 100 μL of 0.5 mg/mL MTT for 2 h at 37 °C testing for cell viability. The medium was then discarded, and 100 μL dimethyl sulfoxide (DMSO) was added. After 30-min incubation, absorbance at 570 nm was read using a microplate reader (Molecular Devices, Sunnyvale, CA, USA).

[2] = system: LPS-induced NO production in RAW264.7 macrophages; assay: LPS-induced NO production in macrophages (nitrite, Griess reaction); format: cell-based, murine; settings: LPS 100 ng/mL, 24 h; for IC50: Mus musculus, RAW264.7, non-linear regression, read-out: IC50 of inhibition of LPS-induced NO production; for NO level: LPS alone 25.3 ± 3.0, control 2.5 ± 0.2
Experimental: as §1
NO production was indirectly assessed by measuring the nitrite levels in the cultured media and serum determined by a colorimetric method based on the Griess reaction. The cells were incubated with different concentrations of samples in the presence of LPS (100 ng/mL) at 37 °C for 24 h. Then, cells were dispensed into 96-well plates, and 100 μL of each supernatant was mixed with the same volume of Griess reagent (1% sulfanilamide, 0.1% naphthyl ethylenediamine dihydrochloride and 5% phosphoric acid) and incubated at room temperature for 10 min; the absorbance was measured at 540 nm with a Micro-Reader (Molecular Devices).
IC50 values were estimated using a non-linear regression algorithm (Sigma Plot 8.0; SPSS Inc., Chicago, IL, USA). Statistical evaluation was carried out by one-way analysis of variance (ANOVA, followed by Scheffe’s multiple range tests).

SMILES	viability at 24 h, 0.312 μg/mL [1] [%]	viability at 24 h, 0.625 μg/mL [1] [%]	viability at 24 h, 1.25 μg/mL [1] [%]	viability at 24 h, 2.5 μg/mL [1] [%]	viability at 24 h, 5 μg/mL [1] [%]	IC50 [2] [µg/mL]	NO level ([2]; dose 0.312 μg/mL) [µM]	NO level ([2]; dose 0.625 μg/mL) [µM]	NO level ([2]; dose 1.25 μg/mL) [µM]	NO level ([2]; dose 2.5 μg/mL) [µM]	viability at 24 h, 25 μg/mL [1] [%]	viability at 24 h, 50 μg/mL [1] [%]	NO level ([2]; dose 25 μg/mL) [µM]	also measured
C=C(C)c1c(OC)c(O)c(C)c2c1OCO2 [Compound 1, 3-isopropenyl-2-methoxy-6-methyl-4,5-methylenedioxyphenol]	92 ± 3.3	91 ± 3.7	90.4 ± 2.4	87.3 ± 2.3	65.5 ± 1.7	1.8 ± 0.2 (≈ 8.1 µM)	14.5 ± 2.2	14.1 ± 1.5	13.0 ± 1.5	12.0 ± 1.7	–	–	–	–
COc1c(C)cc(-c2c(O)c(C)c(OC)c3c2OCO3)c2c1OCO2 [Compound 2, 2-hydroxy-4,4′-dimethoxy-3,3′-dimethyl-5,6,5′,6′-bimethylenedioxybiphenyl]	98 ± 1.5	96.6 ± 7.6	96.6 ± 2.2	92.7 ± 1.3	71.4 ± 2.2	–	16.4 ± 2.4	16.1 ± 1.3	15.7 ± 2.0	15.5 ± 1.9	–	–	–	–
COc1c(C)c(-c2c(C)c(OC)c(O)c3c2OCO3)c2c(c1O)OCO2 [Compound 3, 4,4′-dihydroxy-3,3′-dimethoxy-2,2′-dimethyl-5,6,5′,6′-bimethylenedioxybiphenyl]	–	–	–	–	–	18.8 ± 0.6 (≈ 51.9 µM)	–	–	–	–	91 ± 7.7	64.8 ± 2.2	12.1 ± 0.6	viability at 24 h, 3.12 μg/mL ([1]; dose 3.12 μg/mL): 95.1 ± 2.9%; viability at 24 h, 6.25 μg/mL ([1]; dose 6.25 μg/mL): 93.1 ± 2.7%; viability at 24 h, 12.5 μg/mL ([1]; dose 12.5 μg/mL): 93 ± 2.6%; NO level ([2]; dose 3.12 μg/mL): 13.7 ± 0.1 µM; NO level ([2]; dose 6.25 μg/mL): 13.4 ± 0.4 µM; NO level ([2]; dose 12.5 μg/mL): 13.2 ± 0.1 µM
COc1cc(C)c(OC)c(O)c1OC [Compound 4, 2,3,6-trimethoxy-5-methylphenol]	97 ± 1.1	96.2 ± 2.2	95 ± 2.1	94.6 ± 1.6	69.3 ± 2.1	–	20.6 ± 1.2	19.4 ± 2.0	18.3 ± 0.3	13.6 ± 0.6	–	–	–	–
COc1c(C)cc(O)c2c1OCO2 [Compound 5, 2,3-methylenedioxy-4-methoxy-5-methylphenol]	93.8 ± 2.9	88.5 ± 1.5	85 ± 2.9	83.8 ± 1.9	82.4 ± 2.7	0.8 ± 0.3 (≈ 4.39 µM)	15.2 ± 1.4	12.8 ± 1.9	12.1 ± 1.6	10.4 ± 1.3	–	–	–	NO level ([2]; dose 5 μg/mL): 10.0 ± 2.2 µM
COc1ccc2c(c1)c(CC(=O)O)c(C)n2C(=O)c1ccc(Cl)cc1 [Indomethacin, indomethacin, reference compound]	–	–	–	–	–	–	–	–	–	–	96.2 ± 1.1	94.8 ± 1.3	19.2 ± 0.6	NO level ([2]; dose 50 μg/mL): 14.3 ± 0.8 µM
